Assay results taken from patent US20090259054A1, “Methods and Compositions for the Treatment of Angiogenesis and Macular Degeneration” (The Texas A&M University System, priority 2008, published 2009).
Entries after “also recorded” stand apart in the source; their conditions may differ.

Legend:
[1] = tested on: C57BL/6 mice; experiment: Matrigel plug assay (VEGF dependent angiogenesis in vivo); settings: VEGF 4 ng/ml, 7 days
Procedure: Matrigel (0.5 ml/plug) with no VEGF or GA, VEGF (4 ng/ml) but no GA, VEGF (4 ng/ml) and 0.1 μM GA or 0.2 μM GA in liquid form at 4° C., respectively, were injected subcutaneously in the midventral abdominal region of 5-6 week old C57BL/6 mice (five mice for each group). After 7 days, the mice were sacrificed and the plugs were removed. Each concentration had 4-5 Matrigel plugs. The Matrigel plugs were fixed with formalin and embedded with paraffin. The 5 μm sections were stained with H&E staining. The number of erythrocyte-filled blood vessels in the high power microscope field (HPF, 200×) was recorded (plug number=4-5, t-test, p<0.005).

[2] = tested on: mouse cornea; experiment: VEGF induced corneal angiogenesis, mouse corneal model; assay type: in vivo; settings: 2.5 μg/ml GA, 160 ng/ml VEGF

With `CC(C)=CCC[C@]1(C)C=Cc2c(O)c3c(c(CC=C(C)C)c2O1)O[C@]12C(=C[C@@H]4C[C@H]1C(C)(C)O[C@@]2(C/C=C(/C)C(=O)O)C4=O)C3=O` [GA, gambogic acid] the “VEGF dependent angiogenesis in Matrigel plugs” value ([1]; 0.1 μM GA) was “inhibited VEGF dependent angiogenesis”, the “VEGF dependent angiogenesis in Matrigel plugs” value ([1]; 0.2 μM GA) was “totally abolished angiogenesis” and the “VEGF induced corneal angiogenesis” value [2] was “significantly inhibits corneal angiogenesis; also recorded: dramatically inhibits”.
